{"source": "patent EP0449955B1", "about": "“SYNTHETIC HIV-LIKE PEPTIDES, THEIR COMPOSITIONS AND USES” (CLARITY TECHNOLOGIES INCORPORATED, priority 1988, dated 1996)", "system": "antibodies to HIV-2", "test": "Rapid EIA with latex-immobilized peptide reagents, HIV-2", "type": "binding", "settings": "free peptide passively adsorbed onto carboxylate latex", "description": "A 125 microliter volume of 10% latex was added to a 375 microliter volume of deionized water, and mixed with an equal volume (0.5ml) of 1M carbodiimide, pH 4.5. The mixture was shaken gently a room temperature for 1 hour, and then washed 3 times by centrifugation at 9,000 x g for 10 minutes, removal of supernate, and resuspension of the pellet in a 12-14 ml volume of deionized water, pH 4.5. The free peptides at 1 mg/ml concentration (500 micrograms/ml of each peptide 4S36 and 5S70), or the peptide-BSA conjugate of peptides 4S36 and 5S70 at 500 micrograms/ml were added to the final washed activated latex pellet (1 ml volume of peptide containing solution per 125 microliters original volume of latex). […] It was determined that this stock solution of latex coated with peptide-BSA conjugate could be diluted 1:10-1:30 with latex diluent buffer for use in the rapid EIA described below.\nSerum specimens were diluted 1:8 for the rapid EIA in a serum diluent buffer consisting of 0.03M Tris, pH 8 containing 0.8% NaCl, 0.05% NaN₃, 0.05% Triton x-100 (trademark). […] The reaction was stopped after 3-4 minutes by adding a drop of 4N H₂SO₄, and the test device could be retained as a permanent record of positive (blue-purple color) or negative (white membrane) until the results were recorded. […]", "data": [{"sequence": "ARLNSWGCAFRQVCHGC [2S25]", "values": [{"measurement": "discrimination of HIV-2+ from HIV-2- serum samples", "value": "capable of discriminating"}]}]}
